# Laboratory results: ChEMBL document CHEMBL3046635, “Synthesis and Herbicidal Activity of New Pyrazole-4-carboxamide Derivatives” (J Pestic Sci, 2004)
# Active and inactive are the calls of the source.
# Assays:
# Rotala indica [1] = test: Post-emergence herbicidal activity against Rotala indica assessed as bleaching of stem/leaf parts; assay type: functional, organism-based; further: test concentration or dose not given here
# Lindernia procumbens [2] = test: Pre-emergence herbicidal activity against Lindernia procumbens assessed as bleaching of stem/leaf parts; assay type: functional, organism-based
# Echinochloa oryzicola [3] = test: Pre-emergence herbicidal activity against Echinochloa oryzicola at 2000 g a.i/ha measured after 14 days; assay type: functional, organism-based
# Rotala indica [4] = test: Pre-emergence herbicidal activity against Rotala indica at 2000 g a.i/ha measured after 14 days; assay type: functional, organism-based
# Pontederia vaginalis [5] = test: Pre-emergence herbicidal activity against Monochoria vaginalis assessed as bleaching of stem/leaf parts; assay type: functional, organism-based
# [6] = system: Schoenoplectiella juncoides; test: Pre-emergence herbicidal activity against Schoenoplectiella juncoides at 2000 g a.i/ha measured after 14 days; assay type: functional, organism-based
# Eleocharis acicularis [7] = test: Pre-emergence herbicidal activity against Eleocharis acicularis assessed as bleaching of stem/leaf parts; assay type: functional, organism-based
# Pontederia vaginalis [8] = test: Pre-emergence herbicidal activity against Monochoria vaginalis at 2000 g a.i/ha measured after 14 days; assay type: functional, organism-based
# Eleocharis acicularis [9] = test: Pre-emergence herbicidal activity against Eleocharis acicularis at 2000 g a.i/ha measured after 14 days; assay type: functional, organism-based
# [10] = system: Schoenoplectiella juncoides; test: Pre-emergence herbicidal activity against Schoenoplectiella juncoides assessed as bleaching of stem/leaf parts; assay type: functional, organism-based
# [11] = system: Schoenoplectiella juncoides; test: Post-emergence herbicidal activity against Schoenoplectiella juncoides assessed as bleaching of stem/leaf parts; assay type: functional, organism-based; further: test concentration or dose not given here
# Elatine triandra [12] = test: Pre-emergence herbicidal activity against Elatine triandra at 2000 g a.i/ha measured after 14 days; assay type: functional, organism-based
# Cyperus difformis [13] = test: Post-emergence herbicidal activity against Cyperus difformis assessed as bleaching of stem/leaf parts; assay type: functional, organism-based; further: test concentration or dose not given here
# Lindernia procumbens [14] = test: Pre-emergence herbicidal activity against Lindernia procumbens at 2000 g a.i/ha measured after 14 days; assay type: functional, organism-based
# Lindernia procumbens [15] = test: Post-emergence herbicidal activity against Lindernia procumbens assessed as bleaching of stem/leaf parts; assay type: functional, organism-based; further: test concentration or dose not given here
# Cyperus difformis [16] = test: Pre-emergence herbicidal activity against Cyperus difformis assessed as bleaching of stem/leaf parts; assay type: functional, organism-based
# Eleocharis acicularis [17] = test: Post-emergence herbicidal activity against Eleocharis acicularis assessed as bleaching of stem/leaf parts; assay type: functional, organism-based; further: test concentration or dose not given here
# Oryza sativa = test: Phytotoxicity against Oryza sativa cv. Koshihikari (rice) at 2000 g a.i/ha measured after 14 days; assay type: organism-based; conditions: in vivo, 336 h
# Echinochloa oryzicola [18] = test: Pre-emergence herbicidal activity against Echinochloa oryzicola assessed as bleaching of stem/leaf parts; assay type: functional, organism-based
# Ammannia multiflora [19] = test: Pre-emergence herbicidal activity against Ammannia multiflora at 2000 g a.i/ha measured after 14 days; assay type: functional, organism-based
# Ammannia multiflora [20] = test: Pre-emergence herbicidal activity against Ammannia multiflora assessed as bleaching of stem/leaf parts; assay type: functional, organism-based
# Cyperus difformis [21] = test: Pre-emergence herbicidal activity against Cyperus difformis at 2000 g a.i/ha measured after 14 days; assay type: functional, organism-based
# Elatine triandra [22] = test: Pre-emergence herbicidal activity against Elatine triandra assessed as bleaching of stem/leaf parts; assay type: functional, organism-based
# Echinochloa oryzicola [23] = test: Post-emergence herbicidal activity against Echinochloa oryzicola assessed as bleaching of stem/leaf parts; assay type: functional, organism-based; further: test concentration or dose not given here
# Ammannia multiflora [24] = test: Post-emergence herbicidal activity against Ammannia multiflora assessed as bleaching of stem/leaf parts; assay type: functional, organism-based; further: test concentration or dose not given here
# Pontederia vaginalis [25] = test: Post-emergence herbicidal activity against Monochoria vaginalis assessed as bleaching of stem/leaf parts; assay type: functional, organism-based; further: test concentration or dose not given here
# Rotala indica [26] = test: Pre-emergence herbicidal activity against Rotala indica assessed as bleaching of stem/leaf parts; assay type: functional, organism-based
# Elatine triandra [27] = test: Post-emergence herbicidal activity against Elatine triandra assessed as bleaching of stem/leaf parts; assay type: functional, organism-based; further: test concentration or dose not given here
Structure (SMILES),Activity (Rotala indica [1]),Activity (Lindernia procumbens [2]),Activity (Echinochloa oryzicola [3]),Activity (Rotala indica [4]),Activity (Pontederia vaginalis [5]),Activity [6],Activity (Eleocharis acicularis [7]),Activity (Pontederia vaginalis [8]),Activity [10],Activity [11],Activity (Elatine triandra [12]),Activity (Cyperus difformis [13]),Activity (Lindernia procumbens [14]),Activity (Lindernia procumbens [15]),Activity (Cyperus difformis [16]),Activity (Eleocharis acicularis [17]),Activity (Oryza sativa),Activity (Echinochloa oryzicola [18]),Activity (Ammannia multiflora [19]),Activity (Ammannia multiflora [20]),also measured
CCCN(CC)C(=O)c1cn(C)nc1OCc1ccc(SC)cc1,Active,Active,inactive,inactive,Active,inactive,Active,inactive,Active,Active,inactive,Active,inactive,Active,Active,Active,Non-toxic,Active,inactive,Active,Activity (Eleocharis acicularis [9]): inactive; Activity (Cyperus difformis [21]): inactive; Activity (Elatine triandra [22]): Active; Activity (Echinochloa oryzicola [23]): Active; Activity (Ammannia multiflora [24]): Active; Activity (Pontederia vaginalis [25]): Active; Activity (Rotala indica [26]): Active; Activity (Elatine triandra [27]): Active
CCCN(CC)C(=O)c1cn(C)nc1OC,Active,Active,inactive,inactive,Active,inactive,Active,inactive,Active,Active,inactive,Active,inactive,Active,Active,Active,Non-toxic,Active,inactive,Active,Activity (Eleocharis acicularis [9]): inactive; Activity (Cyperus difformis [21]): inactive; Activity (Elatine triandra [22]): Active; Activity (Echinochloa oryzicola [23]): Active; Activity (Ammannia multiflora [24]): Active; Activity (Pontederia vaginalis [25]): Active; Activity (Rotala indica [26]): Active; Activity (Elatine triandra [27]): Active
CCCN(CC)C(=O)c1cn(C)nc1OCc1cc(F)cc(F)c1,Active,Active,Active,Active,Active,Active,Active,Active,Active,Active,Active,Active,Active,Active,Active,Active,Non-toxic,Active,Active,Active,Activity (Eleocharis acicularis [9]): inactive; Activity (Cyperus difformis [21]): Active; Activity (Elatine triandra [22]): Active; Activity (Echinochloa oryzicola [23]): Active; Activity (Ammannia multiflora [24]): Active; Activity (Pontederia vaginalis [25]): Active; Activity (Rotala indica [26]): Active; Activity (Elatine triandra [27]): Active
CCCN(CC)C(=O)c1cn(C)nc1OC(C)c1cccc(Br)c1 (stereo unspecified),Active,Active,inactive,inactive,Active,inactive,Active,inactive,Active,Active,inactive,Active,inactive,Active,Active,Active,Non-toxic,Active,inactive,Active,Activity (Eleocharis acicularis [9]): inactive; Activity (Cyperus difformis [21]): inactive; Activity (Elatine triandra [22]): Active; Activity (Echinochloa oryzicola [23]): Active; Activity (Ammannia multiflora [24]): Active; Activity (Pontederia vaginalis [25]): Active; Activity (Rotala indica [26]): Active; Activity (Elatine triandra [27]): Active
CCCN(CC)C(=O)c1cn(C)nc1OCc1cccc(C)c1,Active,Active,inactive,Active,Active,Active,Active,Active,Active,Active,Active,Active,Active,Active,Active,Active,Non-toxic,Active,Active,Active,Activity (Cyperus difformis [21]): Active; Activity (Elatine triandra [22]): Active; Activity (Echinochloa oryzicola [23]): Active; Activity (Ammannia multiflora [24]): Active; Activity (Pontederia vaginalis [25]): Active; Activity (Rotala indica [26]): Active; Activity (Elatine triandra [27]): Active
CCCN(CC)C(=O)c1cn(C)nc1OCc1cccc(C#N)c1,Active,Active,inactive,inactive,Active,inactive,Active,inactive,Active,Active,inactive,Active,inactive,Active,Active,Active,Non-toxic,Active,inactive,Active,Activity (Eleocharis acicularis [9]): inactive; Activity (Cyperus difformis [21]): inactive; Activity (Elatine triandra [22]): Active; Activity (Echinochloa oryzicola [23]): Active; Activity (Ammannia multiflora [24]): Active; Activity (Pontederia vaginalis [25]): Active; Activity (Rotala indica [26]): Active; Activity (Elatine triandra [27]): Active
CCCN(CC)C(=O)c1cn(C)nc1OCc1cc(C(F)(F)F)cc(C(F)(F)F)c1,Active,Active,inactive,inactive,Active,inactive,Active,inactive,Active,Active,inactive,Active,inactive,Active,Active,Active,Non-toxic,Active,inactive,Active,Activity (Eleocharis acicularis [9]): inactive; Activity (Cyperus difformis [21]): inactive; Activity (Elatine triandra [22]): Active; Activity (Echinochloa oryzicola [23]): Active; Activity (Ammannia multiflora [24]): Active; Activity (Pontederia vaginalis [25]): Active; Activity (Rotala indica [26]): Active; Activity (Elatine triandra [27]): Active
CCCN(CC)C(=O)c1cn(C)nc1OCc1ccc(C(F)(F)F)cc1,Active,Active,inactive,Active,Active,Active,Active,Active,Active,Active,Active,Active,Active,Active,Active,Active,Non-toxic,Active,Active,Active,Activity (Eleocharis acicularis [9]): inactive; Activity (Cyperus difformis [21]): inactive; Activity (Elatine triandra [22]): Active; Activity (Echinochloa oryzicola [23]): Active; Activity (Ammannia multiflora [24]): Active; Activity (Pontederia vaginalis [25]): Active; Activity (Rotala indica [26]): Active; Activity (Elatine triandra [27]): Active
C#CCOc1nn(C)cc1C(=O)N(CC)CCC,Active,Active,inactive,inactive,Active,inactive,Active,inactive,Active,Active,inactive,Active,inactive,Active,Active,Active,Non-toxic,Active,inactive,Active,Activity (Eleocharis acicularis [9]): inactive; Activity (Cyperus difformis [21]): inactive; Activity (Elatine triandra [22]): Active; Activity (Echinochloa oryzicola [23]): Active; Activity (Ammannia multiflora [24]): Active; Activity (Pontederia vaginalis [25]): Active; Activity (Rotala indica [26]): Active; Activity (Elatine triandra [27]): Active
